Data on 24 compounds can be found in patent US20160130278A1 (TAISHO PHARMACEUTICAL CO., LTD, priority 2013, published 2016).

The term pIC50 denotes the negative decadic logarithm of the IC50, by convention in mol/L. A higher pIC50 goes with a low IC50.

pIC50: −log10 of the molar value.

The assay concerns the target T1, human type 1 glycine transporter (GlyT1) (Homo sapiens, UniProt P48067).
T1 construct: T98G cells (glioma cells) expressing human type 1 glycine transporter (GlyT1) were used
T1 sequence (P48067 1-706): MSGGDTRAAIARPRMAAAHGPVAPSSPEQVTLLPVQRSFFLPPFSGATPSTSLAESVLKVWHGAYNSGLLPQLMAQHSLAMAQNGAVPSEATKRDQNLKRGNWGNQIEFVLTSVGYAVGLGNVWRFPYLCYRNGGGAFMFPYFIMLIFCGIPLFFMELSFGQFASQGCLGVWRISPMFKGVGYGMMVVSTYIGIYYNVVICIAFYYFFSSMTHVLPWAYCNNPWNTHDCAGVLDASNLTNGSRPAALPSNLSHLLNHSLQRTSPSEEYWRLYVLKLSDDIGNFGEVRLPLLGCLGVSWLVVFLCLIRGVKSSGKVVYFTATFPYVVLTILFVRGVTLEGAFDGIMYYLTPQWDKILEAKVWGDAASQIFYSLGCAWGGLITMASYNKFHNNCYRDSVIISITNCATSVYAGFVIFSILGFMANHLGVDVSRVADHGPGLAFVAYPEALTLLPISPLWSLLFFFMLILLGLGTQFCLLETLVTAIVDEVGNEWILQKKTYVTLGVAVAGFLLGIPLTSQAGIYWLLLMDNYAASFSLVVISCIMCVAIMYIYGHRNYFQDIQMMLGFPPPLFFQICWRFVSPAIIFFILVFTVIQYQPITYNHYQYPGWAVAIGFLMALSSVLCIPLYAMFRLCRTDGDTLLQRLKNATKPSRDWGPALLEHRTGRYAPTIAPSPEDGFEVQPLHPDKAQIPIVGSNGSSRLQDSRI
Nature of the assay: Glycine uptake inhibition experiment ([3H]glycine uptake). The assay is classed as cell-based. The note with it: GlyT1. The essentials: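 T98G glioma cells expressing human GlyT1 were pretreated 10 min with compound in HEPES buffer pH 7.4 (0.2% BSA), then incubated with compound plus 250 nM final [3H]glycine for 15 min at room temperature. Intracellular radioactivity was counted after NaOH lysis; 10 μM ALX5407 defined non-specific uptake. IC50 came from 10^−9–10^−5 M curves.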
`O=C(NC(c1ncccc1Cl)C1(O)CCC(F)(F)CC1)c1nccc(C(F)(F)F)c1Cl` (single isomer, unassigned) [Compound 318, 3-chloro-N-[(3-chloropyridin-2-yl)(4,4-difluoro-1-hydroxycyclohexyl)methyl]-4-(trifluoromethyl)pyridine-2-carboxamide] had a negative-log IC50 (pIC50) of 6.62.

`O=C(NC(c1ncccc1Cl)C1(O)CCC(F)(F)CC1)c1nccc(C(F)(F)F)c1Cl` (single isomer, unassigned) [Compound 319, 3-chloro-N-[(3-chloropyridin-2-yl)(4,4-difluoro-1-hydroxycyclohexyl)methyl]-4-(trifluoromethyl)pyridine-2-carboxamide]: the pIC50 is 5.74.

Consider `O=C(NC(c1cccc(F)c1Cl)[C@]1(O)CC[C@@H](F)CC1)c1ncc(C(F)(F)F)cc1Cl` (single isomer, unassigned) [Compound 320, 3-chloro-N-[(2-chloro-3-fluorophenyl)(cis-4-fluoro-1-hydroxycyclohexyl)methyl]-5-(trifluoromethyl)pyridine-2-carboxamide], for which the pIC50 was 6.00.

Consider `O=C(NC(c1cccnc1Cl)[C@]1(O)CC[C@@H](F)CC1)c1ccnc(C(F)(F)F)c1Cl` (single isomer, unassigned) [Compound 321, 3-chloro-N-[(2-chloropyridin-3-yl)(cis-4-fluoro-1-hydroxycyclohexyl)methyl]-2-(trifluoromethyl)pyridine-4-carboxamide], for which the pIC50 is 6.23.

Regarding `O=C(NC(c1cccnc1Cl)[C@]1(O)CC[C@@H](F)CC1)c1cccc(C(F)(F)F)c1Cl` (single isomer, unassigned) [Compound 322, 2-chloro-N-[(2-chloropyridin-3-yl)(cis-4-fluoro-1-hydroxycyclohexyl)methyl]-3-(trifluoromethyl)benzamide], the negative-log IC50 (pIC50) is 6.46.

In turn, `O=C(NC(c1cccnc1Cl)[C@]1(O)CC[C@@H](F)CC1)c1cc(C(F)(F)F)ncc1Cl` (single isomer, unassigned) [Compound 323, 5-chloro-N-[(2-chloropyridin-3-yl)(cis-4-fluoro-1-hydroxycyclohexyl)methyl]-2-(trifluoromethyl)pyridine-4-carboxamide] gave a negative-log IC50 (pIC50) of 6.70.

In turn, `O=C(NC(c1cccnc1Cl)[C@]1(O)CC[C@@H](F)CC1)c1nccc(C(F)F)c1Cl` (single isomer, unassigned) [Compound 324, 3-chloro-N-[(2-chloropyridin-3-yl)(cis-4-fluoro-1-hydroxycyclohexyl)methyl]-4-(difluoromethyl)pyridine-2-carboxamide] had a negative logarithm of the IC50 (pIC50) of 5.92.

`O=C(NC(c1cccnc1Cl)[C@]1(O)CC[C@@H](F)CC1)c1cc(C(F)(F)F)ccc1Cl` (single isomer, unassigned) [Compound 325, 2-chloro-N-[(2-chloropyridin-3-yl)(cis-4-fluoro-1-hydroxycyclohexyl)methyl]-5-(trifluoromethyl)benzamide]: the negative logarithm of the IC50 (pIC50) is 6.37.

Turning to `O=C(NC(c1cccnc1Cl)[C@]1(O)CC[C@@H](F)CC1)c1nccc2ccccc12` (single isomer, unassigned) [Compound 326, N-[(2-chloropyridin-3-yl)(cis-4-fluoro-1-hydroxycyclohexyl)methyl]isoquinoline-1-carboxamide], the pIC50 is 5.96.

Consider `O=C(NC(c1cccc(Cl)n1)[C@]1(O)CC[C@@H](F)CC1)c1cccc(C(F)(F)F)c1Cl` (single isomer, unassigned) [Compound 327], for which the pIC50 was 7.09.

`O=C(NC(c1cccc(Cl)n1)[C@]1(O)CC[C@@H](F)CC1)c1nccc(C(F)F)c1Cl` (single isomer, unassigned) [Compound 328, 3-chloro-N-[(6-chloropyridin-2-yl)(cis-4-fluoro-1-hydroxycyclohexyl)methyl]-4-(difluoromethyl)pyridine-2-carboxamide]: the pIC50 is 6.70.

In turn, `O=C(NC(c1cccc(F)n1)[C@]1(O)CC[C@@H](F)CC1)c1nccc(C(F)(F)F)c1Cl` (single isomer, unassigned) [Compound 329, 3-chloro-N-[(cis-4-fluoro-1-hydroxycyclohexyl)(6-fluoropyridin-2-yl)methyl]-4-(trifluoromethyl)pyridine-2-carboxamide] had a pIC50 of 6.85.

The compound `O=C(NC(c1cc(Cl)ccn1)[C@]1(O)CC[C@@H](F)CC1)c1ccnc(C(F)(F)F)c1Cl` (single isomer, unassigned) [Compound 330, 3-chloro-N-[(4-chloropyridin-2-yl)(cis-4-fluoro-1-hydroxycyclohexyl)methyl]-2-(trifluoromethyl)pyridine-4-carboxamide] gave a negative-log IC50 (pIC50) of 7.25.

`O=C(NC(c1cc(Cl)ccn1)[C@]1(O)CC[C@@H](F)CC1)c1cccc(C(F)(F)F)c1Cl` (single isomer, unassigned) [Compound 331, 2-chloro-N-[(4-chloropyridin-2-yl)(cis-4-fluoro-1-hydroxycyclohexyl)methyl]-3-(trifluoromethyl)benzamide] gave a pIC50 of 7.06.

In turn, `O=C(NC(c1cc(Cl)ccn1)[C@]1(O)CC[C@@H](F)CC1)c1nccc(C(F)F)c1Cl` (single isomer, unassigned) [Compound 332, 3-chloro-N-[(4-chloropyridin-2-yl)(cis-4-fluoro-1-hydroxycyclohexyl)methyl]-4-(difluoromethyl)pyridine-2-carboxamide] showed a pIC50 of 5.85.

`O=C(NC(c1cc(Cl)ccn1)[C@]1(O)CC[C@@H](F)CC1)c1cc(C(F)(F)F)ncc1Cl` (single isomer, unassigned) [Compound 333, 5-chloro-N-[(4-chloropyridin-2-yl)(cis-4-fluoro-1-hydroxycyclohexyl)methyl]-2-(trifluoromethyl)pyridine-4-carboxamide]: the negative logarithm of the IC50 (pIC50) is 5.77.

Turning to `O=C(NC(c1cc(Cl)ccn1)[C@]1(O)CC[C@@H](F)CC1)c1nccc2ccccc12` (single isomer, unassigned) [Compound 334, N-[(4-chloropyridin-2-yl)(cis-4-fluoro-1-hydroxycyclohexyl)methyl]isoquinoline-1-carboxamide], the pIC50 is 6.05.

With `O=C(NC(c1cc(Cl)ccn1)[C@]1(O)CC[C@@H](F)CC1)c1ccc(C(F)(F)F)nc1Cl` (single isomer, unassigned) [Compound 335, 2-chloro-N-[(4-chloropyridin-2-yl)(cis-4-fluoro-1-hydroxycyclohexyl)methyl]-6-(trifluoromethyl)pyridine-3-carboxamide], the pIC50 is 6.57.

For `O=C(NC(c1cccc(F)c1Cl)[C@]1(O)CC[C@@H](F)CC1)c1cc(-n2nccn2)ccc1Cl` (single isomer, unassigned) [Compound 336, 2-chloro-N-[(2-chloro-3-fluorophenyl)(cis-4-fluoro-1-hydroxycyclohexyl)methyl]-5-(2H-1,2,3-triazol-2-yl)benzamide], the pIC50 was 6.16.

`O=C(NC(c1cccc(F)c1Cl)[C@]1(O)CC[C@@H](F)CC1)c1cc(-n2ccnn2)ccc1Cl` (single isomer, unassigned) [Compound 337, 2-chloro-N-[(2-chloro-3-fluorophenyl)(cis-4-fluoro-1-hydroxycyclohexyl)methyl]-5-(1H-1,2,3-triazol-1-yl)benzamide] gave a negative-log IC50 (pIC50) of 5.72.

On to `O=C(NC(c1cccc(Cl)n1)[C@]1(O)CC[C@@H](F)CC1)c1ccnc(C(F)(F)F)c1Cl` (single isomer, unassigned) [Compound 338, 3-chloro-N-[(6-chloropyridin-2-yl)(cis-4-fluoro-1-hydroxycyclohexyl)methyl]-2-(trifluoromethyl)pyridine-4-carboxamide], for which the negative logarithm of the IC50 (pIC50) was 7.02.

In turn, `O=C(NC(c1cccc(Cl)n1)[C@]1(O)CC[C@@H](F)CC1)c1ccc(C(F)(F)F)nc1Cl` (single isomer, unassigned) [Compound 339, 2-chloro-N-[(6-chloropyridin-2-yl)(cis-4-fluoro-1-hydroxycyclohexyl)methyl]-6-(trifluoromethyl)pyridine-3-carboxamide] had a pIC50 of 6.85.

Take `O=C(NC(c1cccnc1Cl)C1(O)CCC(F)(F)CC1)c1nccc(C(F)(F)F)c1Cl` (single isomer, unassigned) [Compound 340, 3-chloro-N-[(2-chloropyridin-3-yl)(4,4-difluoro-1-hydroxycyclohexyl)methyl]-4-(trifluoromethyl)pyridine-2-carboxamide]: the pIC50 is 6.49.

In the case of `O=C(NC(c1cccnc1Cl)C1(O)CCC(F)(F)CC1)c1ccnc(C(F)(F)F)c1Cl` (single isomer, unassigned) [Compound 341, 3-chloro-N-[(2-chloropyridin-3-yl)(4,4-difluoro-1-hydroxycyclohexyl)methyl]-2-(trifluoromethyl)pyridine-4-carboxamide], the pIC50 is 6.07.
